Paper PMC6334511, “Biochemical characterization of the minimal domains of an iterative eukaryotic polyketide synthase” (The Febs Journal, 2018)

test system: ApPKS KS-AT didomain; experiment: alpha-ketoglutarate dehydrogenase coupled NADH fluorescence; type: biochemical, Anas platyrhynchos; conditions: transacylation to ACP1 (AT site), corrected for ACP1 self-acylation; 50 mM sodium phosphate pH 7.6, 10% glycerol, 1 mM TCEP, 1 mM EDTA; read-out: Km (apparent)

Row | SMILES | Km [µM]
1 | CC(=O)SCCNC(=O)CCNC(=O)[C@H](O)C(C)(C)COP(=O)(O)OP(=O)(O)OC[C@H]1O[C@@H](n2cnc3c(N)ncnc32)[C@H](O)[C@@H]1OP(=O)(O)O [acetyl-CoA] | 8.97 ± 1.53
2 | CC(C)(COP(=O)(O)OP(=O)(O)OC[C@H]1O[C@@H](n2cnc3c(N)ncnc32)[C@H](O)[C@@H]1OP(=O)(O)O)[C@@H](O)C(=O)NCCC(=O)NCCSC(=O)CC(=O)O [malonyl-CoA] | 7.4 ± 0.97
3 | CC(C(=O)O)C(=O)SCCNC(=O)CCNC(=O)[C@H](O)C(C)(C)COP(=O)(O)OP(=O)(O)OC[C@H]1O[C@@H](n2cnc3c(N)ncnc32)[C@H](O)[C@@H]1OP(=O)(O)O (stereo partly shown) [methylmalonyl-CoA] | 245 ± 37.7
4 | CCC(=O)SCCNC(=O)CCNC(=O)[C@H](O)C(C)(C)COP(=O)(O)OP(=O)(O)OC[C@H]1O[C@@H](n2cnc3c(N)ncnc32)[C@H](O)[C@@H]1OP(=O)(O)O [propionyl-CoA] | 12.2 ± 3.03
